From ChEMBL document CHEMBL3603767, “Discovery of new acetylcholinesterase inhibitors with small core structures through shape-based virtual screening” (Bioorg Med Chem Lett, 2015)
Activity calls are given as the source filed them. No cut-off for these calls is given here.

Columns and labels:
[1] = biological target: Cholinesterase (Equus caballus) (UniProt P81908); test: Inhibition of equine serum BChE at 10 uM pre-incubated for 5 mins before butyrylthiocholineiodide substrate addition by Ellman's method
Cholinesterase (Equus caballus), sequence (P81908 whole entry): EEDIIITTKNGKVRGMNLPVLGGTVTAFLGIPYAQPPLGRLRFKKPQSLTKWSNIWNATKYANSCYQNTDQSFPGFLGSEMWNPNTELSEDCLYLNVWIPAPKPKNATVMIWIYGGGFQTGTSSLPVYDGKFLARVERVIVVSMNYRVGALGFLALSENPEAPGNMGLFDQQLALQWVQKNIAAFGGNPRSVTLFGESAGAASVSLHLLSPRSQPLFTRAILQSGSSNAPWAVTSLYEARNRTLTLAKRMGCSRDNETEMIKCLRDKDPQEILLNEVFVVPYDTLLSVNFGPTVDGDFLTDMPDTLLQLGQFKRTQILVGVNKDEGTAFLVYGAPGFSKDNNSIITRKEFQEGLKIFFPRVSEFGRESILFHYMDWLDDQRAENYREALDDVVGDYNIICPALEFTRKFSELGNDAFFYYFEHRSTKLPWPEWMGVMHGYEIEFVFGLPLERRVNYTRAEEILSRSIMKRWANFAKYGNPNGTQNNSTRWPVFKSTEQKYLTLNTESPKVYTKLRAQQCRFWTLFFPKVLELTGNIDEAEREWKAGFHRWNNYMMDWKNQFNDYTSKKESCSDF

[2] = biological target: Acetylcholinesterase (Electrophorus electricus) (UniProt O42275); test: Inhibition of Electrophorus electricus AChE at 10 uM pre-incubated for 5 mins before acetylthiocholine iodide substrate addition by Ellman's method
Acetylcholinesterase (Electrophorus electricus), sequence (O42275 24-633 limits assumed): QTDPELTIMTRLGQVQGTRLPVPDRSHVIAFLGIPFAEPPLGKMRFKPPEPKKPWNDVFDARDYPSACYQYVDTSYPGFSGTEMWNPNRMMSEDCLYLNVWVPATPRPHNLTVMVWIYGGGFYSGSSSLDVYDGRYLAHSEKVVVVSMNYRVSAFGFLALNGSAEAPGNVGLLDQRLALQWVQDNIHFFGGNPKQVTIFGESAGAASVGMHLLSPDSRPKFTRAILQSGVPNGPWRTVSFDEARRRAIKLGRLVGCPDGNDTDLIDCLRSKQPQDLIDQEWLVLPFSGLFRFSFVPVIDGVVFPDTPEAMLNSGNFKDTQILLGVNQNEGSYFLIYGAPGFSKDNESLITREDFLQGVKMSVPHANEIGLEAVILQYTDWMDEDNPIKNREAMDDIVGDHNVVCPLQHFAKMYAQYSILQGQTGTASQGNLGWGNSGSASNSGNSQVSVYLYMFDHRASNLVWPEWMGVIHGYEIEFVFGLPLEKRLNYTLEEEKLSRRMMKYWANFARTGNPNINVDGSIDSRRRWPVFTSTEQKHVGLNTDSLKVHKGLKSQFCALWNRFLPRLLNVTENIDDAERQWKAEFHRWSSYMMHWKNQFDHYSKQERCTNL

Cholinesterase = Cholinesterase (Equus caballus, UniProt P81908)
Cholinesterase, sequence (P81908 whole entry): as the sequence (P81908 whole entry) above
Description: Inhibition of equine serum BChE pre-incubated for 5 mins before butyrylthiocholineiodide substrate addition by Ellman's method

Acetylcholinesterase = Acetylcholinesterase (Electrophorus electricus, UniProt O42275)
Acetylcholinesterase, sequence (O42275 whole entry): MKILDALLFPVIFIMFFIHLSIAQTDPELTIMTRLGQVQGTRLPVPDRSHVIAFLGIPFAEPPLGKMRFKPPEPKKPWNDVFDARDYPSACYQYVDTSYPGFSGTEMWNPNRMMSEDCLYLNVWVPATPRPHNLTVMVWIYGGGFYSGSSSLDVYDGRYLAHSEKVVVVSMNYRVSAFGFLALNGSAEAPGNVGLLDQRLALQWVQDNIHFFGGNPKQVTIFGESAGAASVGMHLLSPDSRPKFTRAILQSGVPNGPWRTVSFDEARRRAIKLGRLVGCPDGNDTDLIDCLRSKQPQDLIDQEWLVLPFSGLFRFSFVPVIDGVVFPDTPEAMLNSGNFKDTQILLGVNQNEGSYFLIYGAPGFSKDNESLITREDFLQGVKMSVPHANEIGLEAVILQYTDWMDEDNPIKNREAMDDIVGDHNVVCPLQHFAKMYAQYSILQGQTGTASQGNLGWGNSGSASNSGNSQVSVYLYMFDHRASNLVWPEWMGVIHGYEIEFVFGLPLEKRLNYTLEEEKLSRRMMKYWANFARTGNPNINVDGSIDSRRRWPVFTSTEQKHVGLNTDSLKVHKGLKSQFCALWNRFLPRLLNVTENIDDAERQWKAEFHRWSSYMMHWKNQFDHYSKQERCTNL
Description: Inhibition of Electrophorus electricus AChE pre-incubated for 5 mins before acetylthiocholine iodide substrate addition by Ellman's method

[3] = biological target: Acetylcholinesterase (Electrophorus electricus) (UniProt O42275); test: Mixed type inhibition of Electrophorus electricus AChE assessed as reduction in enzyme Vmax at 5 to 80 nM pre-incubated for 5 mins before acetylthiocholine iodide substrate addition by Lineweaver-Burk plot
[4] = biological target: Acetylcholinesterase (Electrophorus electricus) (UniProt O42275); test: Mixed type inhibition of Electrophorus electricus AChE assessed as increase in enzyme Km at 5 to 80 nM pre-incubated for 5 mins before acetylthiocholine iodide substrate addition by Lineweaver-Burk plot

With `CN1CCNc2nc3ccccc3nc21` the inhibition [1] was 42.1% and the inhibition [2] was 26.1%.
`Oc1ccnc2ccccc12` was tested, and the inhibition [1] was 28.8% and the inhibition [2] was 32.5%.
Molecule `Nc1nc(N)c2c(n1)CCC2` has an inhibition [1] of 46.7% and an inhibition [2] of 50.8%.
Molecule `O=C1c2ccccc2NC2=NCCCN12` has an inhibition [1] of 42.5% and an inhibition [2] of 26.7%.
`Nc1ccc2nc3n(c(=O)c2c1)CCC3` showed an inhibition [1] of 31.7% and an inhibition [2] of 59.2%.
In the case of `CC1(C)CC(=O)c2c(nc3ccccc3c2N)C1`, the inhibition [1] is reported as 85%, the IC50 (Cholinesterase) is reported as 36200 nM and the IC50 (Acetylcholinesterase) is reported as 7190 nM. It also gave an inhibition [2] of 92.8%.
Molecule `CCCCN1CCc2c1nc1ccc(Br)cc1c2N` has an inhibition [1] of 92.5%, an IC50 (Cholinesterase) of 8920 nM and an IC50 (Acetylcholinesterase) of 300 nM. The inhibition [2] was 90.6%.
Work on `Nc1nc(O)c2c(n1)CCC2` yielded an inhibition [1] of 45.8% and an inhibition [2] of 45.6%.
Work on `Nc1c2c(nc3sccc13)CCCC2` yielded an inhibition [1] of 98.2%, an IC50 (Cholinesterase) of 110 nM and an IC50 (Acetylcholinesterase) of 260 nM. For the same molecule, the inhibition [2] was 99.8%.
For `Cc1cccc2c(N)c3c(nc12)N(C)CC3`, the inhibition [1] was 90.8%, the IC50 (Cholinesterase) was 15900 nM and the IC50 (Acetylcholinesterase) was 1150 nM. The inhibition [2] was 89.7%.
Work on `Oc1nc(S)nc2c1CCCN2` yielded an inhibition [1] of 30.4% and an inhibition [2] of 68.3%.
Molecule `COc1ccc2nc(C(F)(F)F)c(C#N)c(N)c2c1` has an inhibition [1] of 35.4%, an IC50 (Cholinesterase) of 30700 nM and an IC50 (Acetylcholinesterase) of 690 nM. It also gave an inhibition [2] of 85%.
`O=c1c(Br)c[nH]c2cccnc12` gave an inhibition [1] of 24.2% and an inhibition [2] of 28.3%.
With `O=c1c2ccccc2nc2n1CCCS2` the inhibition [1] was 45% and the inhibition [2] was 59.2%.
With `Nc1c2c(nc3c4c(nn13)CCC4)CCC2` the inhibition [1] was 59.2%, the IC50 (Cholinesterase) was 60900 nM and the IC50 (Acetylcholinesterase) was 7410 nM. It also gave an inhibition [2] of 76.7%.
For `Nc1c2c(nc3c1C1CCCCC1S3)CCCC2` (stereo not given), the inhibition [3] was “Active”, the inhibition [1] was 98.8% and the IC50 (Cholinesterase) was 330 nM. For the same molecule, the IC50 (Acetylcholinesterase) was 30 nM, the inhibition [4] was “Active” and the inhibition [2] was 95.6%.
Molecule `CC(=O)c1oc2ccccc2c1N` has an inhibition [1] of 49.2% and an inhibition [2] of 13.3%.
Molecule `Nc1nc(N)c2c(Br)cccc2n1` has an inhibition [1] of 82.5% and an inhibition [2] of 76.9%.
With `N#CCSc1nc(N)c2c3c(sc2n1)CCCC3` the inhibition [1] was 65.4% and the inhibition [2] was 34.2%.
With `Nc1c2c(nc3ccccc13)N(Cc1ccccc1)CC2` the inhibition [1] was 99.8%, the IC50 (Cholinesterase) was 2250 nM and the IC50 (Acetylcholinesterase) was 740 nM. For the same molecule, the inhibition [2] was 96.4%.
`Nc1c2c(nc3c1CCC3)CCCC2` [IPIDACRINE] showed an inhibition [1] of 99%, an IC50 (Cholinesterase) of 70 nM and an IC50 (Acetylcholinesterase) of 170 nM. It also gave an inhibition [2] of 98.7%.
`Nc1c(N)c2ccccc2oc1=O` gave an inhibition [1] of 27.9% and an inhibition [2] of 8.33%.
In the case of `CC(=O)c1c(C)nc2ccccc2c1N`, the inhibition [3] is reported as “Active”, the inhibition [1] is reported as 99.7% and the IC50 (Cholinesterase) is reported as 460 nM. For the same molecule, the IC50 (Acetylcholinesterase) was 320 nM, the inhibition [4] was “Active” and the inhibition [2] was 96.9%.
